Test results from ChEMBL document CHEMBL5058564, “EUbOPEN Chemogenomics Library 2 (Incucyte)” (2022).

How the values were obtained:
Format in all cases: toxicity, cell-based
HEK-293T = assay: Incucyte cell viability with HEK293T; conditions: human, 10 µM, compound concentration 10 uM
U2OS = assay: Incucyte cell viability with U2OS; conditions: human, 10 µM, compound concentration 10 uM
Fibroblast = assay: Incucyte cell viability with human fibroblast; conditions: 10 µM, compound concentration 10 uM
[1] = 0 h, replicate number 2, timepoint 0 hours
[2] = 6 h, replicate number 2, timepoint 6 hours
[3] = 12 h, replicate number 1, timepoint 12 hours
[4] = 12 h, replicate number 2, timepoint 12 hours
[5] = 18 h, replicate number 1, timepoint 18 hours
[6] = 18 h, replicate number 2, timepoint 18 hours
[7] = 24 h, replicate number 1, timepoint 24 hours
[8] = 24 h, replicate number 2, timepoint 24 hours
[9] = 0 h, replicate number 1, timepoint 0 hours
[10] = 6 h, replicate number 1, timepoint 6 hours
Note: unitless GR value; below 1 slowed growth and below 0 cell loss.

| Structure (SMILES) | Growth Rate (HEK-293T; [1]) | Growth Rate (HEK-293T; [2]) | Growth Rate (HEK-293T; [3]) | Growth Rate (HEK-293T; [4]) | Growth Rate (HEK-293T; [5]) | Growth Rate (HEK-293T; [6]) | Growth Rate (HEK-293T; [7]) | Growth Rate (HEK-293T; [8]) | Growth Rate (U2OS; [9]) | Growth Rate (U2OS; [1]) | Growth Rate (U2OS; [10]) | Growth Rate (U2OS; [2]) | Growth Rate (U2OS; [3]) | Growth Rate (U2OS; [5]) | Growth Rate (Fibroblast; [1]) | Growth Rate (Fibroblast; [4]) | Growth Rate (Fibroblast; [7]) | Growth Rate (Fibroblast; [8]) | Growth Rate (HEK-293T; [10]) | Growth Rate (U2OS; [7]) | further results |
| --- | --- | --- | --- | --- | --- | --- | --- | --- | --- | --- | --- | --- | --- | --- | --- | --- | --- | --- | --- | --- | --- |
| Cc1ccc(OCC(O)C(C)NC(C)C)c2c1CCC2.Cl (configuration not stated) | 0.95 | 0.7 | 0.49 | 0.63 | 0.16 | 0.65 | 0.03 | 0.62 | 0.09 | 0.28 | 1 | 0.87 | 0.83 | 0.98 | 0.52 | 0.32 | 0.38 | 0.51 | – | – | Growth Rate (Fibroblast; [9]): 0.41; Growth Rate (Fibroblast; [2]): 0.19; Growth Rate (Fibroblast; [3]): 0.74; Growth Rate (Fibroblast; [5]): 0.5; Growth Rate (Fibroblast; [6]): 0.54 |
| O=C(O)CCCCCC[C@H]1C(=O)NC(=O)N1CCC(O)C1CCCCC1 (some centres not stated) | 0.31 | 0.93 | 0.73 | 0.68 | 0.88 | 0.81 | 0.91 | – | -0.44 | – | 0.65 | – | – | 0.81 | 0.26 | 0.91 | – | – | 0.84 | – | Growth Rate (Fibroblast; [9]): 0.25 |
| CCc1nnc(NS(=O)(=O)c2ccc(NC(=S)NC(=O)/C=C/c3ccc(F)cc3)cc2)s1 | 0.59 | – | 0.53 | – | 0.58 | – | 0.67 | 0.73 | 0.07 | -0.11 | 0.55 | – | 0.77 | 0.81 | -0.01 | 0.53 | 0.62 | 0.61 | 0.64 | 0.86 | Growth Rate (U2OS; [6]): 0.86; Growth Rate (Fibroblast; [2]): 0.82; Growth Rate (Fibroblast; [3]): 0.7; Growth Rate (Fibroblast; [6]): 0.53 |
| Oc1c(CN2CCN(c3ccccn3)CC2)cc(Cl)c2cccnc12 | -1 | – | -0.03 | – | 0.11 | – | 0.17 | – | 0.03 | -0.6 | 0.19 | -0.14 | 0.01 | -0.04 | – | – | 0.65 | 0.89 | -0.48 | -0.07 | Growth Rate (U2OS; [4]): 0.21; Growth Rate (U2OS; [6]): 0.1; Growth Rate (U2OS; [8]): 0.08 |
| CC(C)(O)C(=O)N1CCN(c2ccc(C(F)(F)F)c(C3=C(c4c[nH]c5ccccc45)C(=O)NC3=O)c2)CC1 | 0.33 | 0.88 | 0.3 | 0.37 | 0.44 | 0.36 | 0.33 | – | -0.52 | 0.29 | 0.8 | 0.91 | 0.92 | 0.66 | -0.42 | 0.04 | -0.3 | -0.09 | 0.49 | 0.67 | Growth Rate (U2OS; [4]): 0.78; Growth Rate (U2OS; [6]): 0.68; Growth Rate (U2OS; [8]): 0.58; Growth Rate (Fibroblast; [9]): -0.17; Growth Rate (Fibroblast; [10]): -0.69; Growth Rate (Fibroblast; [2]): 0.17; Growth Rate (Fibroblast; [3]): -0.33; Growth Rate (Fibroblast; [5]): -0.31; Growth Rate (Fibroblast; [6]): -0.06 |
| C[C@@H]1CC(=O)Nc2cccc(-c3ccc4c(c3)c(-c3cnn(C)c3)nn4C)c2N1 | 0.93 | 0.26 | 0.43 | 0.42 | 0.41 | 0.45 | 0.38 | 0.43 | -0.4 | – | 0.24 | – | 0.53 | 0.7 | – | – | – | – | 0.14 | 0.85 | Growth Rate (Fibroblast; [10]): 0.21 |
